These are literature values, as cited in US20130102635A1, “Methods for Treating Disorders Associated with Hyperlipidemia in a Mammal” (priority 2005, published 2013).

Entries after “also recorded” stand apart in the source; their conditions may differ. Where two headings read alike, the source gives them in different places.

For series [1] the following is noted: clinical studies, 80 mg/day or greater.
The conditions of series [2]: animal model for homozygous FH, for example at 25 mg/day.

On to `Cc1cc(C)c2c3ccccc3n(Cc3ccc([C@@H](C(=O)N[C@H](CO)c4ccccc4)C4CCCC4)cc3)c2n1` [implitapide, (2S)-2-cyclopentyl-2-[4-[(2,4-dimethyl-9H-pyrido[2,3-b]indol-9-yl)methyl]phenyl]-N-[(1S)-2-hydroxy-1-phenylethyl]ethanamide], for which the adverse events result by setting is: (clinical studies, implitapide 80 mg/day or greater) “gastrointestinal disturbances, abnormalities in liver function, and hepatic steatosis”; (implitapide 80 mg/day and 160 mg/day) “gastrointestinal disorders, abnormalities in liver function and/or hepatic steatosis”. For the same compound, the therapeutic effectiveness result in series [1] is given as “therapeutically effective”.
On to `O=C(NC1CCN(CCCCC2(C(=O)NCC(F)(F)F)c3ccccc3-c3ccccc32)CC1)c1ccccc1-c1ccc(C(F)(F)F)cc1` [BMS-201038, N-(2,2,2-Trifluorethyl)-9-[4-[4-[[[4′-(trifluoromethyl)[1,1′biphenyl]-2-Yl]carbonyl]amino]-1-piperidinyl]butyl] 9H-fluorene-9-carboxamide], for which, under “patients, 25 mg/day BMS-201038”, the adverse events result is “gastrointestinal disturbances, abnormalities in liver function, and hepatic steatosis; also recorded: gastrointestinal disorders, abnormalities in liver function and/or hepatic steatosis”. In series [2], the “reduction of plasma cholesterol levels” value is “effectively reduced plasma cholesterol levels in a dose dependent manner”.
